In US7244431B2, “Allergy vaccines and their preparation” (priority 2000, dated 2007):

Tests used:
[1] = tested on: IgE antibodies in sera from birch pollen allergic patients; assay: ELISA detection of peptide- and rBet v 1-specific IgE antibodies; format: binding, human
Experimental: Birch pollen allergic patients suffering from allergic rhinoconjunctivitis and/or asthma to birch pollen and related allergens were selected according to case history indicative for seasonal birch pollinosis and characterized by skin prick testing with birch pollen extract and serological CAP RAST (Pharmacia Diagnostics, Uppsala, Sweden) testing. Total IgE levels in the sera were determined by CAP RIST measurements (Pharmacia). […] Sera from 60 birch pollen allergic patients and a non-atopic individual were used for IgE competition studies. The birch pollen allergic patients group consisted of 25 males and 35 females with a mean age of 37 years (ranging from 19-60 years) (Table 2).
Subsequently, plates were incubated with 1:3 diluted sera from 60 birch pollen allergic patients and from a non-atopic individual overnight at 4° C. Bound IgE antibodies were detected with a 1:1000 diluted alkaline-phosphatase-coupled mouse monoclonal anti-human IgE antibody (Pharmingen, San Diego, Calif.).

[2] = tested on: birch pollen allergic patients; assay: Skin prick testing of allergic patients; format: in vivo, human; settings: 100 μg/ml
Experimental: SPTs were performed on the individuals forearms as described ([…]. et al. (1997) J. Clin Invest. 99, 1673-168; Dreborg S: (1989) J. Am. Acad. DerMatol. 21, 820-821). […] In addition standardized skin prick solutions (birch pollen extract and histamine) (Allergopharma, Reinbek, Germany) were tested. Reactions were recorded 20 minutes after SPT by photography and by transferring the ballpoint pen-surrounded wheal area with a scotch tape to paper.

CVDHTNFKYNYSVIEGGPIGDTLEKISNEIK [Peptide P6, Bet v 1-derived synthetic peptide, position aa 75-104, one cysteine added]
IgE (OD) ([1]; serum of NHS, non-allergic control individual): — (Dashes indicate reactivities below the cut-off level (OD=0.050)) | IgE (OD) ([1]; serum of patient 1): — (Dashes indicate reactivities below the cut-off level (OD=0.050)) | IgE (OD) ([1]; serum of patient 2): — (Dashes indicate reactivities below the cut-off level (OD=0.050)) | IgE (OD) ([1]; serum of patient 3): — (Dashes indicate reactivities below the cut-off level (OD=0.050)) | IgE (OD) ([1]; serum of patient 4): — (Dashes indicate reactivities below the cut-off level (OD=0.050)) | IgE (OD) ([1]; serum of patient 5): — (Dashes indicate reactivities below the cut-off level (OD=0.050)) | IgE (OD) ([1]; serum of patient 6): — (Dashes indicate reactivities below the cut-off level (OD=0.050)) | IgE (OD) ([1]; serum of patient 7): — (Dashes indicate reactivities below the cut-off level (OD=0.050)) | IgE (OD) ([1]; serum of patient 8): — (Dashes indicate reactivities below the cut-off level (OD=0.050)) | IgE (OD) ([1]; serum of patient 9): — (Dashes indicate reactivities below the cut-off level (OD=0.050)) | IgE (OD) ([1]; serum of patient 10): — (Dashes indicate reactivities below the cut-off level (OD=0.050)) | IgE (OD) ([1]; serum of patient 11): — (Dashes indicate reactivities below the cut-off level (OD=0.050)) | IgE (OD) ([1]; serum of patient 12): — (Dashes indicate reactivities below the cut-off level (OD=0.050)) | IgE (OD) ([1]; serum of patient 13): — (Dashes indicate reactivities below the cut-off level (OD=0.050)) | IgE (OD) ([1]; serum of patient 14): — (Dashes indicate reactivities below the cut-off level (OD=0.050)) | IgE (OD) ([1]; serum of patient 15): — (Dashes indicate reactivities below the cut-off level (OD=0.050)) | IgE (OD) ([1]; serum of patient 16): — (Dashes indicate reactivities below the cut-off level (OD=0.050)) | IgE (OD) ([1]; serum of patient 17): — (Dashes indicate reactivities below the cut-off level (OD=0.050)) | IgE (OD) ([1]; serum of patient 18): — (Dashes indicate reactivities below the cut-off level (OD=0.050)) | IgE (OD) ([1]; serum of patient 19): — (Dashes indicate reactivities below the cut-off level (OD=0.050)) | IgE (OD) ([1]; serum of patient 20): — (Dashes indicate reactivities below the cut-off level (OD=0.050)) | IgE (OD) ([1]; serum of patient 21): — (Dashes indicate reactivities below the cut-off level (OD=0.050)) | IgE (OD) ([1]; serum of patient 22): — (Dashes indicate reactivities below the cut-off level (OD=0.050)) | IgE (OD) ([1]; serum of patient 23): — (Dashes indicate reactivities below the cut-off level (OD=0.050)) | IgE (OD) ([1]; serum of patient 24): — (Dashes indicate reactivities below the cut-off level (OD=0.050)) | IgE (OD) ([1]; serum of patient 25): — (Dashes indicate reactivities below the cut-off level (OD=0.050)) | IgE (OD) ([1]; serum of patient 26): — (Dashes indicate reactivities below the cut-off level (OD=0.050)) | IgE (OD) ([1]; serum of patient 27): — (Dashes indicate reactivities below the cut-off level (OD=0.050)) | IgE (OD) ([1]; serum of patient 28): — (Dashes indicate reactivities below the cut-off level (OD=0.050)) | IgE (OD) ([1]; serum of patient 29): — (Dashes indicate reactivities below the cut-off level (OD=0.050)) | IgE (OD) ([1]; serum of patient 30): — (Dashes indicate reactivities below the cut-off level (OD=0.050)) | IgE (OD) ([1]; serum of patient 31): — (Dashes indicate reactivities below the cut-off level (OD=0.050)) | IgE (OD) ([1]; serum of patient 32): — (Dashes indicate reactivities below the cut-off level (OD=0.050)) | IgE (OD) ([1]; serum of patient 33): — (Dashes indicate reactivities below the cut-off level (OD=0.050)) | IgE (OD) ([1]; serum of patient 34): — (Dashes indicate reactivities below the cut-off level (OD=0.050)) | IgE (OD) ([1]; serum of patient 35): — (Dashes indicate reactivities below the cut-off level (OD=0.050)) | IgE (OD) ([1]; serum of patient 36): — (Dashes indicate reactivities below the cut-off level (OD=0.050)) | IgE (OD) ([1]; serum of patient 37): — (Dashes indicate reactivities below the cut-off level (OD=0.050)) | IgE (OD) ([1]; serum of patient 38): — (Dashes indicate reactivities below the cut-off level (OD=0.050)) | IgE (OD) ([1]; serum of patient 39): — (Dashes indicate reactivities below the cut-off level (OD=0.050)) | IgE (OD) ([1]; serum of patient 40): — (Dashes indicate reactivities below the cut-off level (OD=0.050)) | IgE (OD) ([1]; serum of patient 41): — (Dashes indicate reactivities below the cut-off level (OD=0.050)) | IgE (OD) ([1]; serum of patient 42): — (Dashes indicate reactivities below the cut-off level (OD=0.050)) | IgE (OD) ([1]; serum of patient 43): — (Dashes indicate reactivities below the cut-off level (OD=0.050)) | IgE (OD) ([1]; serum of patient 44): — (Dashes indicate reactivities below the cut-off level (OD=0.050)) | IgE (OD) ([1]; serum of patient 45): — (Dashes indicate reactivities below the cut-off level (OD=0.050)) | IgE (OD) ([1]; serum of patient 46): — (Dashes indicate reactivities below the cut-off level (OD=0.050)) | IgE (OD) ([1]; serum of patient 47): — (Dashes indicate reactivities below the cut-off level (OD=0.050)) | IgE (OD) ([1]; serum of patient 48): — (Dashes indicate reactivities below the cut-off level (OD=0.050)) | IgE (OD) ([1]; serum of patient 49): — (Dashes indicate reactivities below the cut-off level (OD=0.050)) | IgE (OD) ([1]; serum of patient 50): — (Dashes indicate reactivities below the cut-off level (OD=0.050)) | IgE (OD) ([1]; serum of patient 51): — (Dashes indicate reactivities below the cut-off level (OD=0.050)) | IgE (OD) ([1]; serum of patient 52): — (Dashes indicate reactivities below the cut-off level (OD=0.050)) | IgE (OD) ([1]; serum of patient 53): — (Dashes indicate reactivities below the cut-off level (OD=0.050)) | IgE (OD) ([1]; serum of patient 54): — (Dashes indicate reactivities below the cut-off level (OD=0.050)) | IgE (OD) ([1]; serum of patient 55): — (Dashes indicate reactivities below the cut-off level (OD=0.050)) | IgE (OD) ([1]; serum of patient 56): — (Dashes indicate reactivities below the cut-off level (OD=0.050)) | IgE (OD) ([1]; serum of patient 57): — (Dashes indicate reactivities below the cut-off level (OD=0.050)) | IgE (OD) ([1]; serum of patient 58): — (Dashes indicate reactivities below the cut-off level (OD=0.050)) | IgE (OD) ([1]; serum of patient 59): — (Dashes indicate reactivities below the cut-off level (OD=0.050)) | IgE (OD) ([1]; serum of patient 60): — (Dashes indicate reactivities below the cut-off level (OD=0.050)) | mean wheal diameter ([2]; individual 1): 0 mm | mean wheal diameter ([2]; individual 2): 0 mm | mean wheal diameter ([2]; individual 3): 0 mm | mean wheal diameter ([2]; individual 4): 0 mm | mean wheal diameter ([2]; individual 5): 0 mm | mean wheal diameter ([2]; individual 6 (allergic, without birch pollen allergy)): 0 mm
